# What was measured:
# [1] = tested on: haloperidol-induced catalepsy; test: haloperidol-induced catalepsy, crossed-leg position test; type: in vivo, Wistar rats; details: for Times of Observation of Catalepsy (s), 0 min / Times of Observation of Catalepsy (s), 3 min / Times of Observation of Catalepsy (s), 6 min: mean ± SEM (n = 6)
# Procedure: (§1) Haloperidol (dopamine D2 antagonist)-induced catalepsy in rodents is a popular model for screening of antiparkinsonian activity of compounds [21]. Caused symptoms in animals are similar to the inability of PD patients to initiate movements. […] The reversal of catalepsy was tested for 6 min (3 times in 3 min intervals) after 1 h of haloperidol administration. As the reference compound was used MSX-3, the adenosine A2A receptor antagonist with confirmed ability to reverse catalepsy mediated by D1 and D2 receptor antagonists.
# (§2) The experiments were carried out on male rats Wistar (180–220 g). Animals were housed in plastic cages in room at a constant temperature of 20 ± 2 °C with natural light–dark cycles. The animals had free access to standard pellet diet and water and were used after a minimum of 3 days of acclimatization to the housing conditions. Control and experimental groups consisted of 6 animals each. All experimental procedures were performed according to the European Union Directive of 22 September 2010 (2010/63/EU) and Polish legislation concerning animal care and use and was approved by the Local Ethics Committee for Experiments on Animals in Kraków, Poland (Resolution No. 70/2014, approval date: 20 May 2014). The examined compound was administered as the suspension in 0.5% methylcellulose in constant volume of 10 mL/kg.
# (§3) Antiparkinsonian activity in catalepsy tests was performed as described in [28]. Haloperidol was administered s.c. at a dose of 0.63 mg/kg, which in 100% of control animals caused catalepsy. Tested compounds were administered i.p. at the doses 50 and 25 mg/kg body weight, 5 min after haloperidol injection. After 60 min from the injection of haloperidol, to assess the occurrence of catalepsy, the animals were placed in a forced position and the time they remained in this position was measured. Two tests were performed to determine the antiparkinsonian activity: crossed leg position test and bar test. In the first test, the animals were put on the hind paws behind the front (forced position); in the second, the animals were supported on a wooden block (the front paws were placed on a block suspended 10 cm above the ground). Then, the time that the animals remain is measured in a forced position (time was measured to a maximum of 60 s). Observation was carried out 3 times in 3-min intervals. The shortening of the time of catalepsy to the control group was adopted for the antiparkinsonian activity.
# [2] = tested on: haloperidol-induced catalepsy; test: haloperidol-induced catalepsy, bar test; type: in vivo, Wistar rats; details: for Times of Observation of Catalepsy (s), 0 min / Times of Observation of Catalepsy (s), 3 min / Times of Observation of Catalepsy (s), 6 min: mean ± SEM (n = 6)
# Procedure: as §1
# Haloperidol-induced catalepsy was not reduced by DL-76 administrated at a dose of 25 mg/kg body weight (Table 3). After administration of DL-76 at a dose of 50 mg/kg body weight, low antiparkinsonian activity in the bar test was observed. […] This effect was weaker than the anti-Parkisonian activity of MSX-3.
# as §2, §3
# [3] = tested on: neuroblastoma SH-SY5Y cells; test: neuroprotection in H2O2-treated SH-SY5Y cells (MTS); type: cell-based; details: H2O2 300 µM, 24 h
# Procedure: The used reference cytostatic drug doxorubicin (DX) decreased cell viability <50% under the same conditions at very low concentrations of 0.2 and 0.05 µM. […] Oxidative damage was induced by very high toxic levels of hydrogen peroxide (H2O2; 300 µM), the popular cell model for PD research, in neuroblastoma SH-SY5Y cell line. […] Salsolinol (SAL) was used at a concentration of 50 µM as the reference compound with the proven neuroprotection activity.
# SH-SY5Y cells were seeded in microplate at a concentration of 2.5 × 10^4 cells/well in 100 μL culture medium and cultured for 24 h at 37 C and 5% CO2 to reach 70% confluence. […] (R,S)-salsolinol (purity ≥ 99%) was obtained from Cayman Chemical (Ann Arbor, MI, USA). Next, H2O2 was added at final concentration 300 μM and the cells were placed into the incubator. After 24 h of compounds co-incubation with H2O2, the CellTiter 96®AQueous Non-Radioactive Cell Proliferation Assay (MTS) labeling mixture was added to each well, and the microplates were incubated under the same conditions for 5 h. The absorbance was measured using a microplate reader EnSpire (PerkinElmer, Waltham, MA USA) at 490 nm. All measurements were performed in triplicate, and results are shown as mean ± SD.
compound,measurement,setting,value
"CC(C)(C)c1ccc(OCCCN2CCCCC2)cc1 [DL76, 1-(3-(4-tert-butylphenoxy)propyl)piperidine]",duration of catalepsy (versus control 19.25),[1]; 25 mg/kg body weight,8.75
same,reduction of the duration of catalepsy compared to the control group,"[1]; 25 mg/kg body weight, not statistically significant",54.5%
same,"Times of Observation of Catalepsy (s), 0 min",[1]; 25 mg/kg,0.66 ± 0.68 s
same,"Times of Observation of Catalepsy (s), 3 min",[1]; 25 mg/kg,10.6 ± 6.1 s
same,"Times of Observation of Catalepsy (s), 6 min",[1]; 25 mg/kg,15.0 ± 6.7 s
same,duration of catalepsy (versus control 19.25),[1]; 50 mg/kg body weight,0.053
same,reduction of the duration of catalepsy compared to the control group,"[1]; 50 mg/kg body weight, statistically significant",99.7%
same,"Times of Observation of Catalepsy (s), 0 min",[1]; 50 mg/kg,0 ± 0 s
same,"Times of Observation of Catalepsy (s), 3 min",[1]; 50 mg/kg,0 ± 0 s
same,"Times of Observation of Catalepsy (s), 6 min",[1]; 50 mg/kg,0.16 ± 0.4 s
same,reduction of haloperidol-induced catalepsy,[2]; 25 mg/kg body weight,not reduced
same,"Times of Observation of Catalepsy (s), 0 min",[2]; 25 mg/kg i.p.,19.5 ± 4.2 s
same,"Times of Observation of Catalepsy (s), 3 min",[2]; 25 mg/kg i.p.,26.5 ± 3.5 s
same,"Times of Observation of Catalepsy (s), 6 min",[2]; 25 mg/kg i.p.,30.0 ± 0 s
same,duration of catalepsy (versus control 25.8),[2]; 50 mg/kg body weight,16.4
same,reduction of the duration of catalepsy compared to the control group,[2]; 50 mg/kg body weight,36.4%
same,"Times of Observation of Catalepsy (s), 0 min",[2]; 50 mg/kg i.p.,13.8 ± 5.9 s
same,"Times of Observation of Catalepsy (s), 3 min",[2]; 50 mg/kg i.p.,13.5 ± 4.2 s
same,"Times of Observation of Catalepsy (s), 6 min",[2]; 50 mg/kg i.p.,22.0 ± 5.0 s
same,cell survival of H2O2-damaged SH-SY5Y cells (neuroprotection),[3]; 10 µM,no increase of cell survival
same,cell survival of H2O2-damaged SH-SY5Y cells (neuroprotection),[3]; 50 µM,no increase of cell survival

# Reference: paper PMC7279487, “Dual Target Ligands with 4-tert-Butylphenoxy Scaffold as Histamine H3 Receptor Antagonists and Monoamine Oxidase B Inhibitors” (International Journal of Molecular Sciences, 2020)
